Experimental findings from a melting point compilation (Tetko et al.; mined from patent text by program, amines drawn as free bases though some values may be those of a salt) are described below.

Each structure is given as a SMILES string.

As a reminder, the melting point is the temperature, or range, at which the solid turns liquid. As to `COc1ccc(COc2cccc(OC)c2C(=O)C=C(SC)SC)cc1`, the melting point fell in the range of 93 to 94 °C.
With `Ic1ccc(Cc2cc(I)c(Cc3ccc(I)cc3)cc2I)cc1`, the melting point fell in the range of 210 to 213 °C.
As for `CN1C(=O)C2(COc3cc4c(cc32)OCCO4)c2c1cccc2-n1ccccc1=O` (stereo not given), the figure is 212 to 214 °C; as for `CC1(C)COC(c2ccc(Br)cc2)OC1`, 62 to 64 °C; as for `O=C(Nc1ccccc1S(=O)(=O)c1ccccc1)N[C@@H](Cc1ccc(OC(=O)c2c(Cl)cncc2Cl)cc1)C(=O)O`, 186 °C.
As for `Cc1cc2c(cc1N1CCCC1)OC(=O)C2C` (stereo not given), the figure is 67 to 69 °C.
Turning to `Cc1cc(NC(=O)C(C)(C)C)n(C)n1`, the melting point lay within 86 to 88 °C.
Regarding `O=C(Cl)COc1ccc([N+](=O)[O-])cc1`, the melting point lay within 84 to 85 °C.
Then `CC(C)Cn1c(CNC(=O)OC(C)(C)C)c(-c2ccccc2)c2cc(CCC(=O)O)ccc2c1=O`, with 182 to 183 °C; and `CCN1C(=O)C(C(=O)Nc2cccc(C(=O)Nc3ccccc3)c2)c2cc(C(=O)C3CCCC3)ccc21` (stereo not given), with 208 to 213 °C.
Compound `CC(C)Cc1nc2ccc(Br)cc2c(-c2ccccc2)c1CNC(=O)OC(C)(C)C` returned a melting point of 193 to 194 °C.
In the case of `O=C(O)c1cnn(-c2ccc(F)cc2)c1`, the melting point was 244 to 247 °C.
Then `CN1C(=O)C(NC(=O)OC(C)(C)C)CC(=O)c2ccccc21` (stereo not given), with 205 to 206 °C; and `CC(CCCCc1ccc(F)cc1)NCc1c(CO)ccc(O)c1CO` (stereo not given), with 72 to 77 °C.
Then `COc1ccc(CN2C(=O)C(c3cc4c(C)noc4cc3O)c3ccccc32)cc1` (stereo not given), with 195 to 197 °C; and `CCOC(=O)c1c(C)[nH]c(CC)c1CC`, with 104 to 106 °C.
`Cc1cccc(N(CC(=O)OC(C)(C)C)C(=O)CN2C(=O)c3ccccc3C2=O)c1`: the melting point came to 166 °C.
The compound `CCOc1cc(O)cc2c1C(=O)N(COC(=O)c1c(Cl)cccc1Cl)S2(=O)=O` displayed a melting point of 216 to 217 °C.
`COc1ccc(C(=O)c2cc(OC)c(OC)c(OC)c2)cc1` displayed a melting point of 72 to 73 °C.
`COC(=O)NC1CN(C(=O)Nc2ccc(OC(F)(F)F)cc2)NC1c1ccc(Cl)cc1` (stereo not given) gave a melting point of 107 to 114 °C.
Take `C#CCOc1cc2c(cc1OC)C(=C(C#N)C(=O)OCC)CC2(C)C`: the melting point lay within 132 to 136 °C.
In turn, `CC(C)(C)c1ccc(OC(=O)n2c3c(c(=O)n(C4CCCCO4)c2=O)CCC3)cc1` (stereo not given) had a melting point of 135 °C.
In turn, `Cc1cccc(N2Cc3ccccc3P2(=O)C(C)C)c1` (stereo not given) showed a melting point of 112 to 113 °C.
In the case of `COC(=O)Nc1c(C(=O)OC)[nH]c2c(C)ccc(C)c12`, the melting point is 184 to 185 °C.
Take `CCCc1c(OCCCCCC#N)ccc(C(=O)c2ccccc2O)c1O`: the melting point lay within 62 to 63 °C.
The compound `O=C(O[C@H]1OCCN(Cc2ccccc2)[C@H]1c1ccc(F)cc1)c1cc(C(F)(F)F)cc(C(F)(F)F)c1` showed a melting point of 102 to 103 °C.
Then `CC(C)(C)c1ccc(Cn2ccc3cc(-c4ccc(C(C)(C)C)cc4)ccc32)cc1`, with 167 to 168 °C; and `CCCn1c(=O)nc(NNC(C)=O)c2[nH]c(C3CCCC3)nc21`, with over 270 °C; and `CCCCCCCCCCOc1ccc(-c2ccc(C#CCCC(C)OC)cc2)cc1` (stereo not given), with 97 to 99 °C.
As for `COc1c(C)cc(C(=O)c2ccc([N+](=O)[O-])cc2)cc1C`, the figure is 131 to 132 °C; as for `CCOC(=O)c1ccc2nc(N)oc2c1`, 211 to 212 °C; as for `CCOC(=O)CN1CCN(c2cc3c(cc2F)c(=O)c(C(=O)O)cn3C2CC2)CC1`, 192 to 194 °C.
As for `OCc1ccc(-c2ccc3nc(-c4ccccc4)cn3c2)cc1`, the figure is 238 to 240 °C; as for `CCCc1c(OCCCCCOc2ccc3c(c2CCC)OC(C(=O)OCC)CC3=O)ccc(C(C)=O)c1O` (stereo not given), 80 to 81 °C.
In the case of `O=c1[nH]cnc(N=Nc2ccccc2)c1O`, the melting point fell in the range of 244 to 245 °C.
